Measured values taken from patent US20020002171A1, “Materials and methods for killing nematodes and nematode eggs” (priority 2000, published 2002).

Tested on: Caenorhabditis elegans
Assay: C. elegans L1 nematicidal dose response in 96-well plates, 5 day visual score (Example 2; same procedure for Example 7, Table 3)
Assay type: in vivo
Parameters: key to 5 Day Visual Score V1 / 5 Day Visual Score V2 / 5 Day Visual Score V3 / 5 Day Visual Score V4 / 5 Day Visual Score V6 / 5 Day Visual Score V5 / Initial HTS Run Visual Score / Follow-up HTS Run Visual Score: Dead: only stiff L1s (no movement); Dead (L4): worms are dead, but at a later larval stage; majority of worms are L1 (based on size) worms move when plate is tapped; majority of worms are L2 (based on size); majority of worms are L3 (based on size); majority of worms are L4 (based on size); AD: majority of worms are adult; #AD: 5 adult worms or less; B!: sterile (0-25 progeny); B: low broodsize (25-100 progeny); ˜B: moderate broodsize (100-250 progeny); <: reduced broodsize (250-500 progeny); OK: no effect (˜1000+ progeny)
Conditions: C. elegans L1, scored day 5; for 5 Day Visual Score V6: 0.3 μM; for 5 Day Visual Score V4: 2.6 μM; for 5 Day Visual Score V5: 0.9 μM; for 5 Day Visual Score V3: 7.8 μM; for 5 Day Visual Score V2: 23.3 μM; for 5 Day Visual Score V1: 70 μM
Experimental: Caenorhabditis elegans adults were grown on Nematode Growth Medium (NGM) until they produced eggs, then the adults were removed.
The eggs were allowed to hatch, and the L1 larvae collected. See The Nematode Caenorhabditis elegans (1988) Cold Spring Harbor Laboratory Press. Using a Matrix Programmable Pipette, the L1s were distributed into 96-well tissue culture plates, 20 L1 in 50 μl NGM per well. Antibiotic/Antimyoticwas added to each well, and 1% by weight E. coli strain HB101. The subject anthelmintic compounds were stored at 5 mM in 100% DMSO. 0.7 μl of compounds 1-31 were added to the left-most column of wells to yield a final concentration of 70 μM in 1.4% DMSO, with 1.4% DMSO only as the control. The compounds were then subjected to 5 more 3-fold dilutions from left to right to yield 6 column concentrations of 70 μM, 23.3 μM, 7.8 μM, 2.6 μM, 0.9 μM, and 0.3 μM. Plates were stored in air-tight Rubbermaid plastic boxes at 20° C. The nematodes had cleared all control wells by day 4, and nematode viability was scored by visual examination under a 100× dissecting microsope on day 5. A visual viability scoring system was used as follows:
Column V1 has a compound concentration of 70 μM with sequential 3-fold dilutions reported in columns V2, V3, V4, V5, and V6, respectively, such that the V6 concentration was 0.3 μM.
The nematicidal activity of anthelmintic Compositions 48-168 were determined in accordance with the procedure outlined in Example 2.

SMILES | 5 Day Visual Score V6 | 5 Day Visual Score V4 | 5 Day Visual Score V5 | 5 Day Visual Score V3 | 5 Day Visual Score V2 | 5 Day Visual Score V1
CCCCOc1ccc(C(=O)N2CC(OCCCc3ccccc3)CC2C(=O)NCc2ccccc2Br)cc1 (centres unmarked) [AKC 102] | B (low broodsize (25-100 progeny)) | L3 | – | – | – | –
CCCCOc1ccc(-c2noc(C3CCC(NC(=O)c4ccc5c(c4)OCO5)CC3)n2)cc1 (centres unmarked) [AKC 103] | < (reduced broodsize (250-500 progeny)) | B (low broodsize (25-100 progeny)) | L4/#AD/B | Dead(L4) | Dead(L3/L4) | –
CCOc1ccccc1C1=NOC(c2cccc3ccccc23)C1C(=O)NCc1ccc(OC(F)(F)F)cc1 (centres unmarked) [AKC 105] | – | L2/Dead(L | – | L2/Dead(L3) | L2/Dead(L3) | L2/Dead(L3)
O=C(Nc1ccc(OC(F)(F)F)cc1)NC1CCC(c2nc(-c3ccccc3)no2)CC1 (centres unmarked) [AKC 107] | L2/Dead(L | Dead(L4) | – | – | Dead(L2/L3) | Dead
O=C(Nc1ccc(Br)cc1)N1CCC(c2nc(-c3ccccc3)no2)CC1 [AKC 108] | – | L1 | – | L1 | Dead | Dead
O=C(NCCc1ccccc1F)C1C(c2ccccc2Cl)=NOC1c1ccc(-c2ccccc2)cc1 (centres unmarked) [AKC 110] | L1 | L1 | L1 | L1 | L1 | L1
COc1ccccc1-c1noc(C(C)CNC(=O)Nc2ccc(OC(F)(F)F)cc2)n1 (centres unmarked) [AKC 111] | OK (no effect (˜1000+ progeny)) | Dead(L3/L | – | L2 | Dead | Dead
Cc1ccc(-c2noc(C3CCC(CNC(=O)Nc4ccc(OC(F)(F)F)cc4)CC3)n2)cc1C (centres unmarked) [AKC 112] | OK (no effect (˜1000+ progeny)) | – | #AD/˜B | – | – | –
O=C(NCC1CCC(c2nc(-c3ccccc3)no2)CC1)Nc1ccc(OC(F)(F)F)cc1 (centres unmarked) [AKC 113] | L4/#AD/B | Dead(L2/L | – | Dead | Dead | Dead
O=C(Nc1ccc(Br)cc1)NC1CCC(c2nc(-c3ccccc3)no2)CC1 (centres unmarked) [AKC 114] | ˜B (moderate broodsize (100-250 progeny)) | L3/Dead(L | – | L3 | L3/Dead(L4) | Dead
O=C(NCCCCCc1nc(-c2ccccc2)no1)Nc1ccc(OC(F)(F)F)cc1 [AKC 115] | – | Dead(L2) | Dead(L2/L | L2/Dead(L2) | Dead(L2/L3) | Dead
O=C(NCCc1ccc(F)cc1)C1C(c2ccccc2Cl)=NOC1c1ccc(-c2ccccc2)cc1 (centres unmarked) [AKC 119] | < (reduced broodsize (250-500 progeny)) | – | – | – | – | –
CC(C)(C)C1=NOC(c2ccc(-c3ccccc3)cc2)C1C(=O)NCCc1ccccc1F (centres unmarked) [AKC 120] | OK (no effect (˜1000+ progeny)) | – | #AD/˜B | L1 | – | L1
COc1ccc(C2=NOC(c3ccc(-c4ccccc4)cc3)C2C(=O)NCCc2ccccc2F)cc1 (centres unmarked) [AKC 121] | – | #AD/˜B | – | – | L1 | L1
CCOc1ccc(C2ON=C(c3ccc(F)cc3)C2C(=O)NCCc2ccc(F)cc2)cc1 (centres unmarked) [AKC 122] | OK (no effect (˜1000+ progeny)) | – | – | – | L1 | Dead
CCOc1ccc(C2ON=C(c3ccc(N(C)C)cc3)C2C(=O)NCCc2ccc(F)cc2)cc1 (centres unmarked) [AKC 123] | #AD/˜B | – | – | – | – | L1
CCOc1cccc(C2ON=C(c3ccccc3OCC)C2C(=O)NCCc2ccc(OC)c(OCC)c2)c1 (centres unmarked) [AKC 124] | L4/#AD/B | L4/#AD/B | L4/#AD/B | – | – | –
CCOc1cccc(C2ON=C(c3ccccc3OCC)C2C(=O)NCc2ccc(OC(F)(F)F)cc2)c1 (centres unmarked) [AKC 125] | – | L2 | – | L2 | L2/Dead(L4) | L2/Dead(L3)
CCCCOc1ccc(C(=O)N2CC(OCCCc3ccccc3)CC2C(=O)NCc2ccccc2OC)cc1 (centres unmarked) [AKC 126] | #AD/˜B | #AD/˜B | ˜B (moderate broodsize (100-250 progeny)) | – | – | –
Cc1ccc(C(CC(=O)c2ccccc2)Nc2ccc(I)cc2)o1 (centres unmarked) [AKC 128] | OK (no effect (˜1000+ progeny)) | L1 | #AD/˜B | Dead | Dead | Dead
Cc1ccc(C(CC(=O)c2ccccc2)Nc2ccc(I)cc2F)o1 (centres unmarked) [AKC 129] | – | – | OK (no effect (˜1000+ progeny)) | – | Dead | Dead
Cc1ccc(C(CC(=O)c2ccc(C)c(C)c2)Nc2cc(Br)c(C)c(Br)c2)o1 (centres unmarked) [AKC 130] | – | #AD/˜B | OK (no effect (˜1000+ progeny)) | – | #AD/-B | Dead
CCC(=O)C(C)C(Nc1cc(Br)c(C)c(Br)c1)c1ccc(C)o1 (centres unmarked) [AKC 131] | < (reduced broodsize (250-500 progeny)) | #AD/˜B | #AD/˜B | #AD/˜B | L1 | Dead
CCCc1ccc(C(Nc2ccc(-c3ccccc3)cc2)C2CCCCC2=O)cc1 (centres unmarked) [AKC 132] | Dead | – | – | Dead | Dead | Dead(L2)
CCCc1ccc(C(CC(=O)c2ccc(C)cc2)Nc2ccc(-c3ccccc3)cc2)cc1 (centres unmarked) [AKC 133] | Dead | Dead | Dead | Dead | Dead | Dead
Fc1ccc(N2CCN(c3nc(NCCC(c4ccccc4)c4ccccc4)ns3)CC2)cc1 [AKC 134] | OK (no effect (˜1000+ progeny)) | – | – | Dead | Dead | Dead
Fc1ccc(N2CCN(c3nc(NCc4ccc(C(F)(F)F)cc4)ns3)CC2)cc1 [AKC 135] | – | – | ˜B (moderate broodsize (100-250 progeny)) | – | L1 | Dead
CCCCCCCCS(=O)(=O)N1CCN(C(=O)C=Cc2cccc(C(F)(F)F)c2)CC1C(=O)NCc1ccc(C(F)(F)F)cc1 (centres unmarked) [AKC 171] | – | – | < (reduced broodsize (250-500 progeny)) | Dead(L4)/#A | L2 | Dead
